Assay results: ChEMBL document CHEMBL3885881, “DrugMatrix”

Species on record: Rattus norvegicus
Experiment: DrugMatrix - Regimen: Daily Repeat
Type: toxicity, organism-based, Sprague-Dawley
Set-up: regimen Daily Repeat, gender Male, age 6-8 weeks
Conditions: in vivo, po, route oral GAVAGE, […]; for BASOPHIL / EOSINOPHIL / ERYTHROCYTE COUNT / HEMATOCRIT / HEMOGLOBIN / LEUKOCYTE COUNT / LYMPHOCYTE / MEAN CORPUSCULAR HEMOGLOBIN / MEAN CORPUSCULAR HEMOGLOBIN CONCENTRATION / MEAN CORPUSCULAR VOLUME / MONOCYTE / NEUTROPHIL / PLATELET COUNT: tissue Blood; for ALANINE AMINOTRANSFERASE / ALBUMIN / ALKALINE PHOSPHATASE / ASPARTATE AMINOTRANSFERASE / BLOOD UREA NITROGEN / CARBON DIOXIDE / CHLORIDE / CHOLESTEROL / CREATINE PHOSPHOKINASE / CREATININE / GLUCOSE / LACTATE DEHYDROGENASE / LIPASE / PHOSPHORUS / POTASSIUM / SODIUM / TOTAL BILIRUBIN / TOTAL PROTEIN / URIC ACID: tissue Plasma
[1] = 0 mg/kg, 72 h, dose level Control, time 3 day
[2] = 0 mg/kg, 120 h, dose level Control, time 5 day
[3] = 0 mg/kg, dose level Control, time 14 day
[4] = 24 mg/kg, 72 h, dose level High, time 3 day
[5] = 24 mg/kg, 120 h, dose level High, time 5 day
[6] = 24 mg/kg, dose level High, time 14 day

Compound: c1ccoc1 [FURAN]
- BASOPHIL [1]: 0.55%
- EOSINOPHIL [1]: 0.55%
- ERYTHROCYTE COUNT [1]: 6.6 x10E6/uL
- HEMATOCRIT [1]: 43.77%
- HEMOGLOBIN [1]: 14.12 G/DL
- LEUKOCYTE COUNT [1]: 10.15 x10E3/uL
- LYMPHOCYTE [1]: 87.95%
- MEAN CORPUSCULAR HEMOGLOBIN [1]: 21.4 pg
- MEAN CORPUSCULAR HEMOGLOBIN CONCENTRATION [1]: 32.23 G/DL
- MEAN CORPUSCULAR VOLUME [1]: 66.33 fL
- MONOCYTE [1]: 1.7%
- NEUTROPHIL [1]: 8.05%
- PLATELET COUNT [1]: 1122 x10E3/uL
- ALANINE AMINOTRANSFERASE [1]: 49.33 u/L
- ALBUMIN [1]: 4.08 G/DL
- ALKALINE PHOSPHATASE [1]: 565 u/L
- ASPARTATE AMINOTRANSFERASE [1]: 81.5 u/L
- BLOOD UREA NITROGEN [1]: 14.33 mg/dL
- CARBON DIOXIDE [1]: 27.17 mmol/L
- CHLORIDE [1]: 106.83 MEQ/L
- CHOLESTEROL [1]: 74.83 mg/dL
- CREATINE PHOSPHOKINASE [1]: 342.33 u/L
- CREATININE [1]: 0.4 mg/dL
- GLUCOSE [1]: 169.5 mg/dL
- LACTATE DEHYDROGENASE [1]: 165.17 u/L
- LIPASE [1]: 13.67 u/L
- PHOSPHORUS [1]: 12.42 mg/dL
- POTASSIUM [1]: 6.7 MEQ/L
- SODIUM [1]: 151.17 MEQ/L
- TOTAL BILIRUBIN [1]: 0.4 mg/dL
- TOTAL PROTEIN [1]: 6.13 G/DL
- URIC ACID [1]: 1.62 mg/dL
- BASOPHIL [2]: 0.87%
- EOSINOPHIL [2]: 0.53%
- ERYTHROCYTE COUNT [2]: 6.86 x10E6/uL
- HEMATOCRIT [2]: 45.15%
- HEMOGLOBIN [2]: 14.42 G/DL
- LEUKOCYTE COUNT [2]: 12.67 x10E3/uL
- LYMPHOCYTE [2]: 87.1%
- MEAN CORPUSCULAR HEMOGLOBIN [2]: 21.05 pg
- MEAN CORPUSCULAR HEMOGLOBIN CONCENTRATION [2]: 32 G/DL
- MEAN CORPUSCULAR VOLUME [2]: 65.75 fL
- MONOCYTE [2]: 1.9%
- NEUTROPHIL [2]: 8.25%
- PLATELET COUNT [2]: 1111 x10E3/uL
- ALANINE AMINOTRANSFERASE [2]: 46.17 u/L
- ALBUMIN [2]: 4.15 G/DL
- ALKALINE PHOSPHATASE [2]: 447.17 u/L
- ASPARTATE AMINOTRANSFERASE [2]: 65.67 u/L
- BLOOD UREA NITROGEN [2]: 13.17 mg/dL
- CARBON DIOXIDE [2]: 29 mmol/L
- CHLORIDE [2]: 104.5 MEQ/L
- CHOLESTEROL [2]: 72 mg/dL
- CREATINE PHOSPHOKINASE [2]: 368.5 u/L
- CREATININE [2]: 0.3 mg/dL
- GLUCOSE [2]: 162.83 mg/dL
- LACTATE DEHYDROGENASE [2]: 99.33 u/L
- LIPASE [2]: 12.67 u/L
- PHOSPHORUS [2]: 12.65 mg/dL
- POTASSIUM [2]: 6.52 MEQ/L
- SODIUM [2]: 148.67 MEQ/L
- TOTAL BILIRUBIN [2]: 0.38 mg/dL
- TOTAL PROTEIN [2]: 6.15 G/DL
- URIC ACID [2]: 1.9 mg/dL
- BASOPHIL [3]: 0.58%
- EOSINOPHIL [3]: 0.45%
- ERYTHROCYTE COUNT [3]: 7.51 x10E6/uL
- HEMATOCRIT [3]: 46.87%
- HEMOGLOBIN [3]: 15.2 G/DL
- LEUKOCYTE COUNT [3]: 14.2 x10E3/uL
- LYMPHOCYTE [3]: 80.78%
- MEAN CORPUSCULAR HEMOGLOBIN [3]: 20.25 pg
- MEAN CORPUSCULAR HEMOGLOBIN CONCENTRATION [3]: 32.42 G/DL
- MEAN CORPUSCULAR VOLUME [3]: 62.45 fL
- MONOCYTE [3]: 1.95%
- NEUTROPHIL [3]: 13.97%
- PLATELET COUNT [3]: 1115.17 x10E3/uL
- ALANINE AMINOTRANSFERASE [3]: 32.5 u/L
- ALBUMIN [3]: 4.22 G/DL
- ALKALINE PHOSPHATASE [3]: 349.5 u/L
- ASPARTATE AMINOTRANSFERASE [3]: 59.67 u/L
- BLOOD UREA NITROGEN [3]: 14.83 mg/dL
- CARBON DIOXIDE [3]: 30.33 mmol/L
- CHLORIDE [3]: 102.17 MEQ/L
- CHOLESTEROL [3]: 76 mg/dL
- CREATINE PHOSPHOKINASE [3]: 163.17 u/L
- CREATININE [3]: 0.37 mg/dL
- GLUCOSE [3]: 157.33 mg/dL
- LACTATE DEHYDROGENASE [3]: 93 u/L
- LIPASE [3]: 10.4 u/L
- PHOSPHORUS [3]: 11.93 mg/dL
- POTASSIUM [3]: 6.55 MEQ/L
- SODIUM [3]: 147.5 MEQ/L
- TOTAL BILIRUBIN [3]: 0.4 mg/dL
- TOTAL PROTEIN [3]: 6.45 G/DL
- URIC ACID [3]: 0.7 mg/dL
- BASOPHIL [4]: 0.77%
- EOSINOPHIL [4]: 0.73%
- ERYTHROCYTE COUNT [4]: 7.35 x10E6/uL
- HEMATOCRIT [4]: 48.6%
- HEMOGLOBIN [4]: 15.9 G/DL
- LEUKOCYTE COUNT [4]: 11.15 x10E3/uL
- LYMPHOCYTE [4]: 82.1%
- MEAN CORPUSCULAR HEMOGLOBIN [4]: 21.57 pg
- MEAN CORPUSCULAR HEMOGLOBIN CONCENTRATION [4]: 32.67 G/DL
- MEAN CORPUSCULAR VOLUME [4]: 66.1 fL
- MONOCYTE [4]: 3.27%
- NEUTROPHIL [4]: 11.37%
- PLATELET COUNT [4]: 1059 x10E3/uL
- ALANINE AMINOTRANSFERASE [4]: 358 u/L
- ALBUMIN [4]: 3.77 G/DL
- ALKALINE PHOSPHATASE [4]: 771.67 u/L
- ASPARTATE AMINOTRANSFERASE [4]: 316 u/L
- BLOOD UREA NITROGEN [4]: 12.33 mg/dL
- CARBON DIOXIDE [4]: 25 mmol/L
- CHLORIDE [4]: 105.67 MEQ/L
- CHOLESTEROL [4]: 87.67 mg/dL
- CREATINE PHOSPHOKINASE [4]: 333.33 u/L
- CREATININE [4]: 0.57 mg/dL
- GLUCOSE [4]: 150.67 mg/dL
- LACTATE DEHYDROGENASE [4]: 707 u/L
- LIPASE [4]: 11.67 u/L
- PHOSPHORUS [4]: 13.97 mg/dL
- POTASSIUM [4]: 6.6 MEQ/L
- SODIUM [4]: 149.33 MEQ/L
- TOTAL BILIRUBIN [4]: 0.93 mg/dL
- TOTAL PROTEIN [4]: 5.4 G/DL
- URIC ACID [4]: 2.27 mg/dL
- BASOPHIL [5]: 0.57%
- EOSINOPHIL [5]: 0.6%
- ERYTHROCYTE COUNT [5]: 7.68 x10E6/uL
- HEMATOCRIT [5]: 50.57%
- HEMOGLOBIN [5]: 16.23 G/DL
- LEUKOCYTE COUNT [5]: 17.47 x10E3/uL
- LYMPHOCYTE [5]: 82.63%
- MEAN CORPUSCULAR HEMOGLOBIN [5]: 21.1 pg
- MEAN CORPUSCULAR HEMOGLOBIN CONCENTRATION [5]: 32.1 G/DL
- MEAN CORPUSCULAR VOLUME [5]: 65.87 fL
- MONOCYTE [5]: 2.43%
- NEUTROPHIL [5]: 12.47%
- PLATELET COUNT [5]: 1240.33 x10E3/uL
- ALANINE AMINOTRANSFERASE [5]: 114.33 u/L
- ALBUMIN [5]: 3.83 G/DL
- ALKALINE PHOSPHATASE [5]: 986 u/L
- ASPARTATE AMINOTRANSFERASE [5]: 240.67 u/L
- BLOOD UREA NITROGEN [5]: 12.33 mg/dL
- CARBON DIOXIDE [5]: 30.67 mmol/L
- CHLORIDE [5]: 101.67 MEQ/L
- CHOLESTEROL [5]: 93.33 mg/dL
- CREATINE PHOSPHOKINASE [5]: 798.67 u/L
- CREATININE [5]: 0.37 mg/dL
- GLUCOSE [5]: 143 mg/dL
- LACTATE DEHYDROGENASE [5]: 233.67 u/L
- LIPASE [5]: 14.67 u/L
- PHOSPHORUS [5]: 12.43 mg/dL
- POTASSIUM [5]: 7.1 MEQ/L
- SODIUM [5]: 148.33 MEQ/L
- TOTAL BILIRUBIN [5]: 0.87 mg/dL
- TOTAL PROTEIN [5]: 5.63 G/DL
- URIC ACID [5]: 2.27 mg/dL
- BASOPHIL [6]: 0.54%
- EOSINOPHIL [6]: 0.64%
- ERYTHROCYTE COUNT [6]: 8.42 x10E6/uL
- HEMATOCRIT [6]: 50.4%
- HEMOGLOBIN [6]: 16.6 G/DL
- LEUKOCYTE COUNT [6]: 14.86 x10E3/uL
- LYMPHOCYTE [6]: 74.12%
- MEAN CORPUSCULAR HEMOGLOBIN [6]: 19.76 pg
- MEAN CORPUSCULAR HEMOGLOBIN CONCENTRATION [6]: 32.96 G/DL
- MEAN CORPUSCULAR VOLUME [6]: 59.9 fL
- MONOCYTE [6]: 2.54%
- NEUTROPHIL [6]: 20.58%
- PLATELET COUNT [6]: 1423.6 x10E3/uL
- ALANINE AMINOTRANSFERASE [6]: 56 u/L
- ALBUMIN [6]: 4.28 G/DL
- ALKALINE PHOSPHATASE [6]: 706.2 u/L
- ASPARTATE AMINOTRANSFERASE [6]: 86.6 u/L
- BLOOD UREA NITROGEN [6]: 13.2 mg/dL
- CARBON DIOXIDE [6]: 27 mmol/L
- CHLORIDE [6]: 104 MEQ/L
- CHOLESTEROL [6]: 106.8 mg/dL
- CREATINE PHOSPHOKINASE [6]: 224.2 u/L
- CREATININE [6]: 0.42 mg/dL
- GLUCOSE [6]: 136.6 mg/dL
- LACTATE DEHYDROGENASE [6]: 113.8 u/L
- LIPASE [6]: 17.2 u/L
- PHOSPHORUS [6]: 10.26 mg/dL
- POTASSIUM [6]: 5.84 MEQ/L
- SODIUM [6]: 148.4 MEQ/L
- TOTAL BILIRUBIN [6]: 0.72 mg/dL
- TOTAL PROTEIN [6]: 6.34 G/DL
- URIC ACID [6]: 1.26 mg/dL
